Source: paper PMC11410249 (PLOS ONE, 2024)
pIC50: −log10 of the molar value.

Key:
Assay type in all cases: biochemical
[1] = target: T1, 12-LO (Homo sapiens, UniProt P18054); assay: LC-MS/MS enzyme activity assay, […] enzyme, […] arachidonic acid
T1 construct: gene ALOX12
T1 sequence (P18054 1-663): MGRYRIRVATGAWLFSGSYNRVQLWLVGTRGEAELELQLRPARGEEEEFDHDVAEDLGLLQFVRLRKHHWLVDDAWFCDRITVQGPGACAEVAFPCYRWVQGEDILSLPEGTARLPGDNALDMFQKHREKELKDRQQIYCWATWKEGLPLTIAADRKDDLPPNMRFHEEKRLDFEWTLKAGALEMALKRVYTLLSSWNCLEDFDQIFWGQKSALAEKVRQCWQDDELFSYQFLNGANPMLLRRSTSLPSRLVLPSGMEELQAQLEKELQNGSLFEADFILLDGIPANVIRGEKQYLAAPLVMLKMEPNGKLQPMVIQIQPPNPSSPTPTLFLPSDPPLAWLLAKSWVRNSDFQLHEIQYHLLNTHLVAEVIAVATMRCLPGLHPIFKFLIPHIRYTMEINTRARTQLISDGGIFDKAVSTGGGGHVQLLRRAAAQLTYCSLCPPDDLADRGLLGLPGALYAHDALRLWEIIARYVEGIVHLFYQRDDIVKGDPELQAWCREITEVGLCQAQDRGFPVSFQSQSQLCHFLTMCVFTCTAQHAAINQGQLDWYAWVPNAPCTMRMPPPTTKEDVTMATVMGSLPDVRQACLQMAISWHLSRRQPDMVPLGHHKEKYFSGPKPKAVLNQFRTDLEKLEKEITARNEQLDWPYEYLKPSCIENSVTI

[2] = target: T2, 15-lipoxygenase (15-LO) (Homo sapiens, UniProt P16050); assay: as above
T2 construct: gene ALOX15
T2 sequence (P16050 2-662): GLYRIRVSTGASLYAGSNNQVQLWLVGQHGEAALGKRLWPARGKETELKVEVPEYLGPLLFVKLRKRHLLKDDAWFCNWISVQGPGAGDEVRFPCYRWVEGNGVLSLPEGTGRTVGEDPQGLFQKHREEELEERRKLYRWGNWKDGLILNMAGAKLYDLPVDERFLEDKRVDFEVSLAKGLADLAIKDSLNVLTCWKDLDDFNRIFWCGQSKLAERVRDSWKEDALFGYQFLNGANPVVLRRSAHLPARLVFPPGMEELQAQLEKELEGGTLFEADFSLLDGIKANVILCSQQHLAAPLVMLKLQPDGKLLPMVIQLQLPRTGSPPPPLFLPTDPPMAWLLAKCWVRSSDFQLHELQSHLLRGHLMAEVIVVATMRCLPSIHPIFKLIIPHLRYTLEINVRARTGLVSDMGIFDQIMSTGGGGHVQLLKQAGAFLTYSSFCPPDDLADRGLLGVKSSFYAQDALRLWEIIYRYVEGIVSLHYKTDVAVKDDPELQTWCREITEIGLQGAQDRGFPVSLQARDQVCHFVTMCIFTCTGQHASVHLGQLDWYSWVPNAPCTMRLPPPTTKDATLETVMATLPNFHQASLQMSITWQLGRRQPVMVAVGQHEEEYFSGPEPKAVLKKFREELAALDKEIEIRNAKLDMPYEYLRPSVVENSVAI

[3] = target: T3, cyclooxygenase (COX-2) (Homo sapiens, UniProt P35354); assay: in vitro enzyme activity assay (product formation by LC-MS/MS)
T3 construct: gene PTGS2
T3 sequence (P35354 18-604): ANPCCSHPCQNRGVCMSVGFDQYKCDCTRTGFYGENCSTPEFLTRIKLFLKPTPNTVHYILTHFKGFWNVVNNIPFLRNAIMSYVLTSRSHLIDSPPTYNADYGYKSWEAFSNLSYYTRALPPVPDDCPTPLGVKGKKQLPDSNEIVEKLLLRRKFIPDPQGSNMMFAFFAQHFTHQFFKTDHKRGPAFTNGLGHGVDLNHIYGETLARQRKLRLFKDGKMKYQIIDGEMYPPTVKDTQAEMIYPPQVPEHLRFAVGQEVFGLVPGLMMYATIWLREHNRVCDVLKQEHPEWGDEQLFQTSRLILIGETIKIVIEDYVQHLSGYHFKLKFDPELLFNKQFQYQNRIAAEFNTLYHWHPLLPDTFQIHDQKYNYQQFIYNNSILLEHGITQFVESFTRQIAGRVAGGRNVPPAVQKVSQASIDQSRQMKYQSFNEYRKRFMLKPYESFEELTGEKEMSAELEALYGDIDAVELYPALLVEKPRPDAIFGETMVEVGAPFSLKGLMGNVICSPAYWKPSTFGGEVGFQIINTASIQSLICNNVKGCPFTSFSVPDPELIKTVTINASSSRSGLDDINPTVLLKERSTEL

[4] = target: T4, 5-lipoxygenase (5-LO) (Homo sapiens, UniProt P09917); assay: LC-MS/MS activity assay in lysate of 5-LO-transfected Expi293F cells, […] arachidonic acid
T4 construct: gene ALOX5; full-length human 5-LO
T4 sequence (P09917 1-674): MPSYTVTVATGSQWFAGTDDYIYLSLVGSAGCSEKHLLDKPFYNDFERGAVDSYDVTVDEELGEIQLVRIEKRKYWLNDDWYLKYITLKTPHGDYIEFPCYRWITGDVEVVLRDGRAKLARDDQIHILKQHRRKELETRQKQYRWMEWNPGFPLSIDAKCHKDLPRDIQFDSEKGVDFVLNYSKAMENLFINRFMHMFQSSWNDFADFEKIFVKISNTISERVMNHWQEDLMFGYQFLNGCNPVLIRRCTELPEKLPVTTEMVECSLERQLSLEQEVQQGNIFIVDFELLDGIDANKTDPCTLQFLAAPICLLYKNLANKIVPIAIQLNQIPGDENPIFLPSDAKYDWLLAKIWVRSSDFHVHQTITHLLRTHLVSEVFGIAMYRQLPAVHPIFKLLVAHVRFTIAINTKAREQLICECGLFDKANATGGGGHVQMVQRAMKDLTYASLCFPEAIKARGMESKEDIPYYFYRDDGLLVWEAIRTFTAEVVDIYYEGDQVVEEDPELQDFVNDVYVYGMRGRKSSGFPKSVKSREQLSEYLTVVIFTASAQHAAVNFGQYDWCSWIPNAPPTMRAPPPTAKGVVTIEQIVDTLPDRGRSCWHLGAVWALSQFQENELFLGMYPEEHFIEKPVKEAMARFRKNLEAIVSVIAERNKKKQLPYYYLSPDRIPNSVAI

## PTC-041 hydroquinone
[1]
  pIC50: 5.28
[2]
  pIC50: 6.02
[3]
  pIC50: 5.02
[4]
  pIC50: 6.34
